From paper PMC9374667 (Communications Biology, 2022)
“And” between values parts separate entries of the source, which are not always exact repeats. Equal values may be shown once.

How the values were obtained:
[1] = pH of the solution after 24 hours of the dissolution test; type: physicochemical
Protocol: Solubilities were determined by adding excess sample to 30 mL different mediums, such as HCl solution, acetate buffer, phosphate buffer, SGF, FaSSIF and FeSSIF. The configuration of various buffer solutions is shown in Supplementary Table 2. After being shaken at 400 rpm at 37 °C for 0.5, 1, 2, and 24 h, 0.3 mL of suspension was sampled and centrifuged at 14,000 rpm for 8 min to isolate mother liquor, and then analyzed by HPLC after dilution. All samples were analyzed in triplicate. […]
into a 1000 mL flask followed by addition of about 800 mL of deionized water. The mixture is stirred until all solids are dissolved.
Add about 100 mL of 0.1 N HCl, check pH value with a pH meter and adjust the pH to 2.0 with HCl (1 N) or NaOH (1 N). Then dilute to the volume with deionized water.
* 1N sodium hydroxide: Weigh 8 g NaOH in a 200 mL plastic volumetric flask, add deionized water to volume and mix well. […]
phosphate and 3.093 g sodium chloride in a 500 mL volumetric flask, add about 0.450 L deionized water, and adjust the pH to 6.5 with 1N sodium hydroxide or 1 N hydrochloric acid. Make up to volume (0.5 […]
Step 2: Place and dissolve 1.120 g FaSSIF/FeSSIF/FaSSGF instant powder with 0.250 L of buffer (from step 1) in a 500 mL volumetric flask, then add buffer (from step 1) to volume, and mix well. […]
g sodium chloride in a 500 mL volumetric flask, add about 0.450 L deionized water, and adjust the pH to 5.0 with 1 N sodium hydroxide or 1 N hydrochloric acid. Make up to volume (500 mL) with
Step 2: Place and dissolve 5.600 g FaSSIF/FeSSIF/FaSSGF instant […]
0.750 L deionized water. Make up to volume (1000 mL) with deionized water and placed overnight.
(1 picture or pasted object on this page, not shown here)

db/db mice [2] = assay: Body weight of db/db mice during 35-day treatment; type: in vivo
Protocol: (§1) The lean wild type control and the db/db control mice were given equal vehicle volume (0.5% CMC-Na solution). All mice were monitored for food intake, body weight, and fasting blood glucose during the 35-day trial. Glucose tolerance test (GTT) and insulin resistance test (ITT) were performed at 4 and 5 weeks of treatment, respectively. Metabolic analysis was performed at 5 weeks of treatment. At the end of the study, blood samples were taken through the retroorbital venous sinus of mice, fat depots (brown fat, inguinal subcutaneous fat, epididymal fat, perirenal fat and mesenteric fat depot) were dissected, weighed, and immediately frozen in liquid nitrogen and stored at −80 °C until required. Weight of fat depots are expressed in percentage (fat depots weight /bodyweight * 100%).

db/db mice [3] = assay: Fat depots weight (BAT, iWAT, eWAT; percentage of body weight); type: in vivo
Protocol: as §1

db/db mice [4] = assay: Serum CHO, TG, FFA, LDL-C, HDL-C and ADPN in the fasted state; type: in vivo
Protocol: The serum was collected by centrifugation at 3000 × g at 4 °C for 15 min and stored at −80 °C until analysis. TG, TC, LDL-C, HDL-C, and FFA were routinely tested on a Chemray 240 automatic biochemical analyzer (Chemray 240, Shenzhen, China). Serum levels of mouse adiponectin, interleukin6 (IL-6), tumor necrosis factor-α (TNF-α) were measured using commercial enzyme-linked immunosorbent assay (ELISA) kits (Nanjing Jiancheng Bioengineering Institute, Nanjing, China) and according to the manufacturer’s instructions. The levels of IL-6, TNF-α in 3T3-L1 adipocyte culture supernatant were also detected by ELISA.

db/db mice [5] = assay: Fasting serum insulin levels (ELISA); type: in vivo; conditions: 150mg/kg, individual animals
Protocol: (§2) Mice were fasted for 4 h for insulin resistance test and intraperitoneally injected with 1 unit/kg of insulin. Blood glucose levels were measured from the tail vein blood at 0, 15, 30, 45, 60, 90, and 120 min after injection. Plasma insulin levels were measured using an ultrasensitive mouse insulin ELISA kit (Nanjing Jiancheng Bioengineering Institute, Nanjing, China).

db/db mice [6] = assay: Insulin tolerance test (ITT), AUC and initial slope; type: in vivo; conditions: db/db mice, IBU 150mg/kg
Protocol: as §2

[7] = 150mg/kg, serum, individual animals
[8] = db/db mice, vs vehicle, BJ 75 and 150 mg/kg, BBR 150 mg/kg, Ibu 150 mg/kg

CC(C)Cc1ccc(C(C)C(=O)O)cc1 (centres unmarked) [Ibu, Ibuprofen, reference compound]
pH of the solution after 24 hours ([1]; Acetate buffer, blank vehicle 4.54): 4.56 | pH of the solution after 24 hours ([1]; CMC-Na, blank vehicle 6.51): 5.57 | pH of the solution after 24 hours ([1]; FaSSIF-v1, blank vehicle 6.51): 6.04 | pH of the solution after 24 hours ([1]; FeSSIF-v1, blank vehicle 5.04): 5.05 | pH of the solution after 24 hours ([1]; HCl solution, blank vehicle 1.08): 1.07 | pH of the solution after 24 hours ([1]; Phosphate buffer, blank vehicle 6.84): 6.60 | pH of the solution after 24 hours ([1]; SGF, blank vehicle 2.03): 2.00 | Body weight (db/db mice [2]; 150mg/kg, day 1, individual animals, in g (unit assumed)): 38.2 and 39.7 | Body weight (db/db mice [2]; 150mg/kg, day 4, individual animals, in g (unit assumed)): 40.6 and 39.7 | Body weight (db/db mice [2]; 150mg/kg, day 19, individual animals, in g (unit assumed)): 48.2 | Body weight (db/db mice [2]; 150mg/kg, day 22, individual animals, in g (unit assumed)): 50.5 | Body weight (db/db mice [2]; 150mg/kg, day 25, individual animals, in g (unit assumed)): 51.6 and 48.5 | Body weight (db/db mice [2]; 150mg/kg, day 28, individual animals, in g (unit assumed)): 49.3 and 49.1 and 52.6 and 48.8 and 51.3 | Body weight (db/db mice [2]; 150mg/kg, day 31, individual animals, in g (unit assumed)): 48.5 and 50.3 and 53 and 48.8 and 51.4 | Body weight (db/db mice [2]; 150mg/kg, day 34, individual animals, in g (unit assumed)): 51.2 and 54.1 and 50.2 and 52.2 | Body weight gain (day 34 minus day 1) (db/db mice [2]; 150mg/kg, individual animals, in g (unit assumed)): 12.5 and 9.1 and 9.9 and 9.2 and 12.8 and 12 | Body weight compared with vehicle (db/db mice [2]; db/db mice, 5 weeks, BJ 75 and 150 mg/kg, BBR 150 mg/kg, Ibu 150 mg/kg): did not observe any significant difference in body weight | Fat Depots Weight, BAT (db/db mice [3]; 150mg/kg, individual animals): 1.27 g and 2.12 g and 1.64 g and 1.62 g and 1.65 g and 1.78 g | Fat Depots Weight, eWAT (db/db mice [3]; 150mg/kg, individual animals): 3.22 g and 3.09 g and 3.41 g and 3.43 g and 3.15 g and 3.78 g | Fat Depots Weight, iWAT (db/db mice [3]; 150mg/kg, individual animals): 3.71 g and 3.4 g and 3.36 g and 4.03 g and 3.78 g and 4.01 g | Fat depots weight / body weight (db/db mice [3]; 150mg/kg, individual animals): 19.7809% and 19.1502% and 20.6641% and 20.9797% | Fat depots weight compared with vehicle (db/db mice [3]; db/db mice, BJ 75 and 150 mg/kg, BBR 150 mg/kg, Ibu 150 mg/kg): not significantly different | CHO (db/db mice [4]; [7]): 4.079 mmol/L and 3.798 mmol/L and 4.949 mmol/L and 5.236 mmol/L and 4.727 mmol/L and 4.145 mmol/L | FFA (db/db mice [4]; [7]): 912.261 µmol/L and 870.411 µmol/L and 861.968 µmol/L and 886.564 µmol/L and 965.859 µmol/L and 978.341 µmol/L | HDL-C (db/db mice [4]; [7]): 1.7462 mmol/L and 1.7831 mmol/L and 1.9083 mmol/L and 2.0311 mmol/L | LDL-C (db/db mice [4]; [7]): 5.9624 mmol/L and 6.6672 mmol/L and 7.0004 mmol/L and 6.9602 mmol/L and 5.8098 mmol/L and 6.6236 mmol/L | Mouse ADPN (db/db mice [4]; [7]): 593.01 ng/mL and 440.43 ng/mL and 462.23 ng/mL and 556.39 ng/mL and 491.43 ng/mL and 431.93 ng/mL | TG (db/db mice [4]; [7]): 1.761 mmol/L and 1.861 mmol/L and 1.959 mmol/L and 1.91 mmol/L and 1.579 mmol/L and 1.279 mmol/L | Serum levels of CHO, TG, FFA and LDL-C (db/db mice [4]; [8]): not significantly different | Serum levels of HDL-C and adiponectin (ADPN) (db/db mice [4]; [8]): not significantly different | Insulin (db/db mice [5]): 16.07 mIU/L and 14.41 mIU/L and 14.02 mIU/L and 15.71 mIU/L and 12.42 mIU/L and 14.35 mIU/L | Blood Glucose (db/db mice [6]; times 0, individual animals (Figure S9p/S9r)): 22.4 mmol/L and 22.3 mmol/L and 22.8 mmol/L | Blood Glucose (db/db mice [6]; times 15, individual animals (Figure S9p/S9r)): 24.0 mmol/L | Blood Glucose (db/db mice [6]; times 30, individual animals (Figure S9p/S9r)): 19.6 mmol/L and 21.3 mmol/L and 20.3 mmol/L and 18.8 mmol/L | Blood Glucose (db/db mice [6]; times 45, individual animals (Figure S9p/S9r)): 13.8 mmol/L and 18.5 mmol/L and 19.5 mmol/L and 17.5 mmol/L and 15.3 mmol/L and 15.6 mmol/L | Blood Glucose (db/db mice [6]; times 60, individual animals (Figure S9p/S9r)): 15.0 mmol/L and 13.2 mmol/L and 20.4 mmol/L and 15.7 mmol/L | Blood Glucose (db/db mice [6]; times 90, individual animals (Figure S9p/S9r)): 15.6 mmol/L and 21.3 mmol/L and 21.6 mmol/L and 14.9 mmol/L and 15.0 mmol/L | Blood Glucose (db/db mice [6]; times 120, individual animals (Figure S9p/S9r)): 18.2 mmol/L and 22.9 mmol/L and 18.8 mmol/L and 16.9 mmol/L and 15.3 mmol/L
